Where “and” joins values, the source holds several entries; their conditions need not be identical. Identical values can stand only once.
Key:
[1] = PET imaging in non-human primate, baseline and blocking study; conditions: male, cynomolgus monkey, iv, total radioactivity
Experimental: Cynomolgus male monkeys with a previously installed vascular access port (VAP) were anesthetized with 0.02 mg/kg atropine, 5 mg/kg Telazol and 0.01 mg/kg buprenorphine I.M. (all drawn into a single syringe). An i.v. catheter is then placed in the cephalic vessel for fluid administration during the imaging procedure to maintain hydration. Animals were intubated with an endotracheal tube—usually 3.0 mm and transferred to the imaging bed of a microPET® F220TM PET instrument (Siemens Preclinical Solutions, Knoxville, Tenn.). Anesthesia was maintained with isoflurane and oxygen and I.V. fluids (LRS) were administered at a rate of 6 ml/kg/hr during the imaging procedure. As the axial field of view of the microPET® F220™ instrument is only 7.6 cm, images over 5 distinct bed positions were acquired to create a composite image of the animals from just above the heart through approximately the pelvis.
For each field of view, a 10 minute transmission image was first acquired using a ^57Co point source for the purpose of attenuation correction of the final PET images. Once transmission images were acquired for all bed positions, approximately 1.7 mCi (approximately 0.12 μg/kg) of the [^18F]labelled macrocyclic PD-L1 peptide radiotracer was administered via the installed VAP. 5 minute duration emission scans were then sequentially acquired for each bed position, beginning at position 1 centered approximately at the heart and moving toward the pelvis of the animal. Once images were acquired at each position (1 through 5), the imaging bed was moved back to bed position 1 and the process was repeated. Using this procedure, a total of 5 distinct images were acquired for each bed position over the duration of the imaging study.
Individual images were reconstructed using a filtered back projection (FBP) algorithm with attenuation correction using the collected transmission images and corrected for radioisotope decay. Final composite images were then produced by aligning images from all 5 bed positions obtained from a single pass (i.e. a single composite image was produced from each set of sequential images from bed positions 1 through 5) covering the duration of the imaging study. […] To determine the nature of the specific binding in the cynomolgus monkey spleen a blocking study was conducted in the following manner.
The cynomolgus monkey (4.4 kg, male) received a single IV injection of [^18F]labelled macrocyclic PD-L1 peptide radiotracer (˜1.7 mCi, mass: 0.21 μg/kg) at baseline. On the following day (post-dose), the same NHP received a single SC dose of 2 mg/kg anti-PD-L1 binding macrocyclic peptide at 2 hours before radiotracer injection (˜1.7 mCi, mass: 0.12 μg/kg).

[2] = PET imaging of mice bearing bilateral xenograft tumors: hPD-L1(+) tumor; assay type: in vivo, mouse; conditions: mouse, hPD-L1(+) L2987 xenograft tumor, iv, total radioactivity, mean of 4 mice
Experimental: (§1) Mice bearing bilateral xenograft tumors were produced by introducing 2×10^6 hPD-L1(+) L2987 human lung carcinoma cells and 4×10^6 hPD-L1(−) HT-29 human colon carcinoma cells subcutaneously on opposite sides of the mouse. Once tumors reached approximately 300 mm^3 (approximately 2-3 weeks after cell implantation), animals were selected for imaging. The body weight and tumor size of each study were measured and recorded on the imaging day before imaging procedure. Mice were placed in an anesthetic induction chamber and 3% isoflurane inhalant anesthesia was delivered in 100% O2 at a rate of 1-1.5 L/min. Once sedated, mice were removed from the induction chamber and placed into a plexiglass 4-chamber mouse hotel (custom-made by BMS-Applied Biotechnology group), while continuing to receive 1-1.5% isoflurane inhalant anesthesia and delivered in 100% O2 at a rate of 2 L/min via the nose-cone. Animal were kept warm using an external standalone temperature regulating unit (M2M Imaging Corp) to prevent hypothermia during imaging. Mouse respiration was continuously monitored during imaging procedures and isoflurane may be adjusted dependent on depth of anesthesia. Mice were then placed into a custom animal holder with capacity for 4 animals, where they remained under anesthesia for the duration of the study. The animal holder was transferred to the microPET® F120™ scanner (Siemens Preclinical Solutions, Knoxville, Tenn.). The axial field of view of this instrument is 7.6 cm. With this limitation, animals were positioned such that the scanning region was from immediately in front of the eyes to approximately the base of the tail. A 10-minute transmission image was first acquired using a ^57Co point source for the purpose of attenuation correction of the final PET images. Following the transmission scan, radiotracer solutions were administered via the previously installed tail vein catheters and a 2 hour emission image was acquired. Injected radiotracer solutions were injected into a total 8 mice (body weight: 22.2±2.0 gram) with tumor volumes 203.0±51.4 mm^3 for HT-29 and 422.9±128.4 mm^3 for L2987 were imaged 16-17 days post cell implantation. Each mouse received a single injection of SC dose of PD-L1 binding macrocyclic peptide 60 mg/kg (N=4) or saline (N=4) 30 minute before the [^18F]labelled macrocyclic PD-L1 peptide (124.0±8.4 μCi, tracer mass: 1.0±0.4 μg/kg) IV injection. Images were reconstructed using a maxiumum a posteriori (MAP) algorithm with attenuation correction using the collected transmission images and corrected for radioisotope decay. In the final images, regions of interest (ROIs) were drawn around the tumor boundary using ASIPro software (Siemens Preclinical Solutions). Time-activity curves were calculated for each ROI to yield a quantitative view of radiotracer within the tumor volume over the course of the 2 hour emission image. For final comparison, individual time-activity curves were normalized based on the injected radiotracer dose for each specific animal. Radiotracer uptake was compared across tumors using the final 10 minutes of each time-activity curve (90-100 minutes post-radiotracer injection).

[3] = test system: hPD-L1(+) L2987 human lung carcinoma xenografts; test: as above; assay type: in vivo, mouse; conditions: for SUV in L2987: individual mice
Experimental: as §1

in vivo = conditions: mouse, hPD-L1(−) HT-29 xenograft tumor, iv, total radioactivity
Experimental: In this experiment, the [^18F]labelled macrocyclic PD-L1 peptide was produced as described in the above Examples, was tested for its ability to discriminate between hPD-L1-positive tumors and hPD-L1-negative tumors in mice.
Mice bearing bilateral xenograft tumors were produced by introducing 2×10^6 hPD-L1(+) L2987 human lung carcinoma cells and 4×10^6 hPD-L1(−) HT-29 human colon carcinoma cells subcutaneously on opposite sides of the mouse. Once tumors reached approximately 300 mm^3 (approximately 2-3 weeks after cell implantation), animals were selected for imaging. The body weight and tumor size of each study were measured and recorded on the imaging day before imaging procedure. Mice were placed in an anesthetic induction chamber and 3% isoflurane inhalant anesthesia was delivered in 100% O2 at a rate of 1-1.5 L/min. […] Mouse respiration was continuously monitored during imaging procedures and isoflurane may be adjusted dependent on depth of anesthesia. […] Time-activity curves were calculated for each ROI to yield a quantitative view of radiotracer within the tumor volume over the course of the 2 hour emission image. […]

CCCC[C@H]1C(=O)N(C)[C@@H](CCCC)C(=O)N[C@@H](CC(C)C)C(=O)N[C@H](C(=O)NCC(=O)N[C@@H](Cc2cn(CCOCCOCCOCCOc3cccnc3[18F])nn2)C(=O)O)CSCC(=O)N[C@@H](Cc2ccc(O)cc2)C(=O)N(C)[C@@H](C)C(=O)N[C@@H](CC(N)=O)C(=O)N2CCC[C@H]2C(=O)N[C@@H](CN)C(=O)N[C@@H](CC(C)C)C(=O)N2C[C@H](O)C[C@H]2C(=O)N[C@@H](Cc2c[nH]c3ccccc23)C(=O)N[C@@H](CCN)C(=O)N[C@@H](Cc2cn(CC(=O)O)c3ccccc23)C(=O)N1C [[^18F]labelled macrocyclic PD-L1 peptide]
SUV ([1]; duodenum, 0.21 ug/kg): 8.84 SUV | SUV ([1]; duodenum, 2 mg/kg): 8.76 SUV | SUV ([1]; gallbladder, 0.21 ug/kg): 2.78 SUV | SUV ([1]; gallbladder, 2 mg/kg): 1.13 SUV | SUV ([1]; kidney cortex, 0.21 ug/kg): 8.42 SUV | SUV ([1]; kidney cortex, 2 mg/kg): 10.8 SUV | SUV ([1]; kidney pelvis, 0.21 ug/kg): 8.86 SUV | SUV ([1]; kidney pelvis, 2 mg/kg): 24.1 SUV | SUV ([1]; liver, 0.21 ug/kg): 9.16 SUV | SUV ([1]; liver, 2 mg/kg): 3.17 SUV | SUV ([1]; lung, 0.21 ug/kg): 1.86 SUV | SUV ([1]; lung, 2 mg/kg): 0.793 SUV | SUV ([1]; muscle, 0.21 ug/kg): 0.521 SUV | SUV ([1]; muscle, 2 mg/kg): 0.341 SUV | SUV ([1]; spleen, 0.21 ug/kg): 19.7 SUV | SUV ([1]; spleen, 2 mg/kg): 1.42 SUV | SUV ([1]; thymus, 0.21 ug/kg): 1.99 SUV | SUV ([1]; thymus, 2 mg/kg): 0.931 SUV | SUV ([2]; 1 ug/kg, saline predose): 0.298 SUV | SUV ([2]; 60 mg/kg PD-L1 binding macrocyclic peptide predose): 0.05 SUV | radiotracer uptake in hPD-L1(+) L2987 xenografts relative to hPD-L1(−) HT-29 xenografts ([3]; SC 60 mg/kg PD-L1 binding macrocyclic peptide 30 minutes before radiotracer): 0.7 × | radiotracer uptake in hPD-L1(+) L2987 xenografts relative to hPD-L1(−) HT-29 xenografts ([3]; animals receiving only the radiotracer): 8.1 × | SUV in L2987 ([3]; 60 mg/kg PD-L1 binding macrocyclic peptide SC 30 min before tracer IV, 60 mg/kg): 0.060 and 0.055 and 0.042 and 0.043 | SUV in L2987 ([3]; saline (0 mg/kg PD-L1 binding macrocyclic peptide) SC 30 min before tracer IV, 90-100 minutes post-radiotracer injection): 0.231 and 0.452 and 0.297 and 0.213 | SUV (in vivo; 1 ug/kg): 0.037 SUV | SUV (in vivo; 60 mg/kg): 0.071 SUV
